According to US12398154B2, “Azaquinazoline pan-KRas inhibitors” (Mirati Therapeutics, Inc., priority 2020, dated 2025):

Experiments:
pERK in H727 cells = assay: Inhibition of KRas phosphorylation of ERK (Cisbio HTRF pERK assay); settings: Homo sapiens, NCI-H727, read-out: Inhibition (HTRF IC50) of KRas-mediated Phosphorylation of ERK, H727
pERK in HCT116 cells = assay: as above; settings: Homo sapiens, HCT-116, read-out: Inhibition (HTRF IC50) of KRas-mediated Phosphorylation of ERK, HCT116
pERK in H460 cells = assay: as above; settings: Homo sapiens, NCI-H460, read-out: Inhibition (HTRF IC50) of KRas-mediated Phosphorylation of ERK, H460
KRas G12V = KRas G12V (Homo sapiens, UniProt P01116, G12V); assay: biochemical;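 also: KRas binding measured by TR-FRET displacement at room temperature, IC50 fitted from percent of control values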
Chain of KRas G12V (P01116 1-169 isoform P01116-2 G12V): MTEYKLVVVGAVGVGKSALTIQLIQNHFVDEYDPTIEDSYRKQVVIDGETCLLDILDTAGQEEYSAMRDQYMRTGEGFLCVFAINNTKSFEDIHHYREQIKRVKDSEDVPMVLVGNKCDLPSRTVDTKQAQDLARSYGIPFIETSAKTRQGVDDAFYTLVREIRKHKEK
Procedure: (§2) The ability of a compound to bind to KRas was measured using a TR-FRET displacement assay. […] After a 60-minute incubation at room temperature, the reaction was measured using a BMG LABTECH CLARIO star Plus via TR-FRET. […] The POC values were fit to a 4-parameter IC50 equation and the IC50 value reported.

pERK in MKN1 cells = assay: Inhibition of KRas phosphorylation of ERK (Cisbio HTRF pERK assay); settings: Homo sapiens, MKN-1, 3 h, read-out: Inhibition (HTRF IC50) of KRas-mediated Phosphorylation of ERK, MKN1
pERK in PSN1 cells = assay: as above; settings: Homo sapiens, PSN1, 3 h, read-out: Inhibition (HTRF IC50) of KRas-mediated Phosphorylation of ERK, PSN1
pERK in ASPC1 cells = assay: as above; settings: Homo sapiens, ASPC1, read-out: Inhibition (HTRF IC50) of KRas-mediated Phosphorylation of ERK, AsPC-1
KRas G12D = KRas G12D (Homo sapiens, UniProt P01116, G12D); assay: biochemical;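 also: TR-FRET displacement binding assay on KRas, read after a one-hour incubation at room temperature, IC50 fitted from percent-of-control values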
Chain of KRas G12D (P01116 1-169 isoform P01116-2 G12D): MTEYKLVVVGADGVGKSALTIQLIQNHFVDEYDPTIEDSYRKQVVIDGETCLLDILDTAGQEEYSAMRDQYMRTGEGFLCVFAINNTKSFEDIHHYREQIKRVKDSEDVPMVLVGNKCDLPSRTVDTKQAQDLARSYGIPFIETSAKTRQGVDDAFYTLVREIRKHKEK
Procedure: as §2

KRas G12R = KRas G12R (Homo sapiens, UniProt P01116, G12R); assay: biochemical;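 also: TR-FRET displacement assay of compound binding to KRas, read after one hour at room temperature, potency from a four-parameter fit of percent-of-control values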
Chain of KRas G12R (P01116 1-169 isoform P01116-2 G12R): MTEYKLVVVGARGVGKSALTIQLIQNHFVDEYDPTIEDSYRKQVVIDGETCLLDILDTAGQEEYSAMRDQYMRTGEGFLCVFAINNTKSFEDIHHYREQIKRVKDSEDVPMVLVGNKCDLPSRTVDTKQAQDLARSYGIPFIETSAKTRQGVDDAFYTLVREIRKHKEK
Procedure: as §2

pERK in A549 cells = assay: Inhibition of KRas phosphorylation of ERK (Cisbio HTRF pERK assay); settings: Homo sapiens, A549, read-out: Inhibition (HTRF IC50) of KRas-mediated Phosphorylation of ERK, A549
[1] = tested on: phospho-ERK in AsPC-1 (G12D) cells; assay: Inhibition of KRas-mediated phosphorylation of ERK (in-cell western); assay type: cell-based; settings: Homo sapiens, ASPC1, 3 h, 3 hours compound, phospho-ERK normalized to GAPDH
Summary of the method: (§1)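 Cells were treated with compound for 3 hours (0.5% DMSO final), then fixed with formaldehyde and permeabilized with ice-cold methanol. Phospho-ERK (Thr202/Tyr204) was detected by antibody and normalized to GAPDH per well, expressed as percent of DMSO control, and IC50 obtained by 4-parameter fit.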

[2] = tested on: phospho-ERK in NCI-H727 (G12V) cells; assay: as above; assay type: cell-based; settings: Homo sapiens, NCI-H727, 3 h, 3 hours compound, phospho-ERK normalized to GAPDH
Summary of the method: as §1

[3] = tested on: phospho-ERK in NCI-H460 (Q61H) cells; assay: as above; assay type: cell-based; settings: Homo sapiens, NCI-H460, 3 h, 3 hours compound, phospho-ERK normalized to GAPDH
Summary of the method: as §1

KRas G13D = target: T1, KRas G13D (Homo sapiens, UniProt P01116, G13D); assay: KRas binding assay (TR-FRET displacement);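 also: One-hour room temperature incubation before TR-FRET reading, IC50 from a four-parameter curve fit to percent-of-control data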
T1 construct: Biotinylated KRas (corresponding to amino acids 1-169, produced at Accelegan Inc.); biotin (biotinylated); purchased Accelegan Inc
T1 sequence (P01116 1-169 isoform P01116-2 G13D): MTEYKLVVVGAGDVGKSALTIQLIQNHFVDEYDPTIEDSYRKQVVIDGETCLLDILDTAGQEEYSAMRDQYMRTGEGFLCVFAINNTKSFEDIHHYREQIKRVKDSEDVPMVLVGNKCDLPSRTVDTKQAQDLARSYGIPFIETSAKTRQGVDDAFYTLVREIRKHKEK
Procedure: as §2

KRas WT = KRas WT (Homo sapiens, UniProt P01116); assay: biochemical;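 also: binding to KRas read as TR-FRET displacement after a one-hour room-temperature incubation, IC50 derived from percent-of-control values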
Chain of KRas WT (P01116 1-169 isoform P01116-2): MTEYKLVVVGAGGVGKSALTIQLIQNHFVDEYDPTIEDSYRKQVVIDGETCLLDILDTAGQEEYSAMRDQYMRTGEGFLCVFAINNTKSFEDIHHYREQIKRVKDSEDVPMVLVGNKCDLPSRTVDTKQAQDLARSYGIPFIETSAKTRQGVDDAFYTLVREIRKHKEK
Procedure: as §2

KRas G12A = KRas G12A (Homo sapiens, UniProt P01116, G12A); assay: biochemical;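 also: binding to KRas measured by TR-FRET displacement after one hour at room temperature, IC50 from a four-parameter fit of percent-of-control values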
Chain of KRas G12A (P01116 1-169 isoform P01116-2 G12A): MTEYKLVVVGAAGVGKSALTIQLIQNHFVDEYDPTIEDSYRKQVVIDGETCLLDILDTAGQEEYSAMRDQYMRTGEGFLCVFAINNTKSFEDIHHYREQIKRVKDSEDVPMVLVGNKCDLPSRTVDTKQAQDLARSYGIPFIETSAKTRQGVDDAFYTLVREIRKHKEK
Procedure: as §2

KRas Q61H = target: T2, KRas Q61H (Homo sapiens, UniProt P01116, Q61H); assay: KRas binding assay (TR-FRET displacement);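 also: TR-FRET signal read after one hour at room temperature, IC50 derived by four-parameter fitting of percent-of-control values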
T2 construct: Biotinylated KRas (corresponding to amino acids 1-169, produced at Accelegan Inc.); biotin (biotinylated); purchased Accelegan Inc
T2 sequence (P01116 1-169 isoform P01116-2 Q61H): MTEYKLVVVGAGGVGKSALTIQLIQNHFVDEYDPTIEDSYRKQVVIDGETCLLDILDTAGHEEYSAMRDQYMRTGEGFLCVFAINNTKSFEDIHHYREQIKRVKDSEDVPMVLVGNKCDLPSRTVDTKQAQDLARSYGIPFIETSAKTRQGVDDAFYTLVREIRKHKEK
Procedure: as §2

KRas G12S = KRas G12S (Homo sapiens, UniProt P01116, G12S); assay: biochemical;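 also: TR-FRET displacement binding to KRas, read after one hour incubation at room temperature, IC50 from four-parameter fit of percent of control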
Chain of KRas G12S (P01116 1-169 isoform P01116-2 G12S): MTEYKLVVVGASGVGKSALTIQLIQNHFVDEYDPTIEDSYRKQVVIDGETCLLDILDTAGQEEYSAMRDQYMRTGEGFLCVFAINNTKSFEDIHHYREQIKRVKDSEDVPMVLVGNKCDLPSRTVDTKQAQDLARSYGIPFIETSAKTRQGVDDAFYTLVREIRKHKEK
Procedure: as §2

KRas G12C = KRas G12C (Homo sapiens, UniProt P01116, G12C); assay: biochemical;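 also: binding to KRas assessed by TR-FRET displacement after one hour incubation at room temperature, potency fitted from percent-of-control values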
Chain of KRas G12C (P01116 1-169 isoform P01116-2 G12C): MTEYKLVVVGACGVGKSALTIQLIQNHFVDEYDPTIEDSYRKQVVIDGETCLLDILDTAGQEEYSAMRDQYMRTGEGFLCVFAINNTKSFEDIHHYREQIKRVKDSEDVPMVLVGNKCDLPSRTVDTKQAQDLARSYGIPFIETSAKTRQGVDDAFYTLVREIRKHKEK
Procedure: as §2

Structure (SMILES) | IC50 (pERK in H727 cells) | IC50 (pERK in HCT116 cells) | IC50 (pERK in H460 cells) | IC50 (KRas G12V) | IC50 (pERK in MKN1 cells) | IC50 (pERK in PSN1 cells) | IC50 (pERK in ASPC1 cells) | IC50 (KRas G12D) | IC50 (KRas G12R) | IC50 (pERK in A549 cells) | IC50 [1] | IC50 [2] | IC50 [3] | IC50 (KRas G13D) | IC50 (KRas WT) | IC50 (KRas G12A) | IC50 (KRas Q61H) | IC50 (KRas G12S) | IC50 (KRas G12C)
CCc1c(F)ccc2cc(O)cc(-c3ncc4c(N5CCCC6(CCC6O)C5)nc(OC[C@@]56CCCN5C[C@H](F)C6)nc4c3F)c12 (stereo partly drawn) [Example 351, 6-(7-(8-ethyl-7-fluoro-3-hydroxynaphthalen-1-yl)-8-fluoro-2-(((2R,7aS)-2-fluorohexahydro-1H-pyrrolizin-7a-yl)methoxy)pyrido[4,3-d]pyrimidin-4-yl)-6-azaspiro[3.5]nonan-1-ol] | 551 nM | 346 nM | 182 nM | 15 nM | 48 nM | 7180 nM | 228 nM | 13 nM | 11 nM | 185 nM | – | – | – | – | – | – | – | – | –
CCc1c(F)ccc2cc(O)cc(-c3ncc4c(N5CC6C(=O)NC(=O)C6(C)C5)nc(OC[C@@]56CCCN5C[C@H](F)C6)nc4c3F)c12 (stereo partly drawn) [Example 482, 5-(7-(8-ethyl-7-fluoro-3-hydroxynaphthalen-1-yl)-8-fluoro-2-(((2R,7aS)-2-fluorohexahydro-1H-pyrrolizin-7a-yl)methoxy)pyrido[4,3-d]pyrimidin-4-yl)-3a-methyltetrahydropyrrolo[3,4-c]pyrrole-1,3(2H,3aH)-dione] | 128 nM | – | 124 nM | ≤ 2 nM | 26 nM | ≥ 10000 nM | 546 nM | ≤ 2 nM | 3 nM | 390 nM | – | – | – | – | – | – | – | – | –
C[C@H]1C[C@H]1c1c(Cl)cc2[nH]ncc2c1-c1ncc2c(N3CCC[C@@](C)(O)C3)nc(OC[C@@]34CCCN3C[C@H](F)C4)nc2c1F (racemic) [Example 153, (3R)-1-(7-(6-chloro-5-(2-methylcyclopropyl)-1H-indazol-4-yl)-8-fluoro-2-(((2R,7aS)-2-fluorotetrahydro-1H-pyrrolizin-7a(5H)-yl)methoxy)pyrido[4,3-d]pyrimidin-4-yl)-3-methylpiperidin-3-ol] | – | – | – | 5 nM | – | – | – | 6 nM | 10 nM | – | 233 nM | 500 nM | 306 nM | 8 nM | 6 nM | 7 nM | 7 nM | 7 nM | 7 nM
CCc1c(F)ccc2cc(O)cc(-c3ncc4c(N5CCCCC(S(C)(=O)=O)C5)nc(OC[C@@]56CCCN5C[C@H](F)C6)nc4c3F)c12 (stereo partly drawn) [Example 308, 5-ethyl-6-fluoro-4-(8-fluoro-2-(((2R,7aS)-2-fluorohexahydro-1H-pyrrolizin-7a-yl)methoxy)-4-(3-(methylsulfonyl)azepan-1-yl)pyrido[4,3-d]pyrimidin-7-yl)naphthalen-2-ol] | 278 nM | 284 nM | – | 4 nM | 40 nM | ≥ 10000 nM | 155 nM | 6 nM | 10 nM | – | 489 nM | 627 nM | 372 nM | – | – | – | – | – | –
CCc1c(F)ccc2cc(O)cc(-c3ncc4c(N5CCC[C@@](C)(O)C5)nc(OC[C@@]56CCCN5C[C@H](F)C6)nc4c3F)c12 [Example 5] | – | – | – | – | – | 364 nM | 2 nM | – | – | 2 nM | – | – | – | – | – | – | – | – | –
CN(C)CC1(COc2nc(N3CCCC4(CNS(=O)(=O)N4)C3)c3cnc(-c4cc(O)cc5ccc(F)c(Cl)c45)c(F)c3n2)CC1 (stereo not drawn) [Example 428, 7-(7-(8-chloro-7-fluoro-3-hydroxynaphthalen-1-yl)-2-((1-((dimethylamino)methyl)cyclopropyl)methoxy)-8-fluoropyrido[4,3-d]pyrimidin-4-yl)-2-thia-1,3,7-triazaspiro[4.5]decane 2,2-dioxide] | 425 nM | 896 nM | – | ≤ 2 nM | 28 nM | 3280 nM | 339 nM | ≤ 2 nM | ≤ 2 nM | 183 nM | – | – | – | – | – | – | – | – | –
